Measured values: US20240034785A1, “RXR-ALPHA BINDERS AND RXR-ALPHA/PLK1 MODULATORS” (NUCMITO PHARMACEUTICALS CO. LTD., priority 2020, published 2024)

Assays:
[1] = test system: B16F10 and 4T1 cells; assay: Mitotic arrest and chromosome misalignment in B16F10 and 4T1 tumor cells; type: cell-based, mouse
[2] = biological target: T1, RXRα heterodimerization with RARγ (Homo sapiens, UniProt P19793); assay: Co-immunoprecipitation of Myc-RXRα with FLAG-RARγ in HeLa cells; type: cell-based; conditions: 10 μM for 3 hr (FIG. 55)
T1 construct: expressed in transfected cells; host or cells: HeLa
T1 sequence (P19793 1-462): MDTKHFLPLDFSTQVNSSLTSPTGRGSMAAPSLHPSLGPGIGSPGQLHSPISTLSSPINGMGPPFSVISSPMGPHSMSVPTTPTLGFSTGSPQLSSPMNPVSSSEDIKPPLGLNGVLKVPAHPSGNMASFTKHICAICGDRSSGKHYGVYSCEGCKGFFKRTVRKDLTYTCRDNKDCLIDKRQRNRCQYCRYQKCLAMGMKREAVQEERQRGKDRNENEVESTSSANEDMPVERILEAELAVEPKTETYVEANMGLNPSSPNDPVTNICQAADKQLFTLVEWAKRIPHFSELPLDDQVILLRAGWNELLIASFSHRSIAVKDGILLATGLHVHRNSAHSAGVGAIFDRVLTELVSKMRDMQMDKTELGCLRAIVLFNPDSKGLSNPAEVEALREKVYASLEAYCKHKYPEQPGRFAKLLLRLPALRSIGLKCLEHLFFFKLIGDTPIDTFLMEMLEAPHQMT
T1 sequence (P13631 1-454 partner): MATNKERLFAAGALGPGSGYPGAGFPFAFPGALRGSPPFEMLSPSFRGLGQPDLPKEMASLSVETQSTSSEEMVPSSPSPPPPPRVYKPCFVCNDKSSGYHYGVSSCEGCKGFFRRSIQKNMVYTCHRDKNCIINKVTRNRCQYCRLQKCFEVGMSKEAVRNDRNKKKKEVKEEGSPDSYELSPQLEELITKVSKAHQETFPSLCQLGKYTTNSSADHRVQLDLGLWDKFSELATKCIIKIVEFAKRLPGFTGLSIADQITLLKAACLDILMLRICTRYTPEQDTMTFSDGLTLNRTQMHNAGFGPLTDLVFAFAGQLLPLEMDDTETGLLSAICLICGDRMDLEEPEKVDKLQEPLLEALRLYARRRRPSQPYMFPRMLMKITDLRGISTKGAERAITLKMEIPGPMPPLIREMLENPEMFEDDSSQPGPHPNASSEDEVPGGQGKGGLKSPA

[3] = test system: HepG2 cells; assay: Centrosome immunofluorescence in metaphase HepG2 cells; type: cell-based, human
Procedure: Cells mounted on glass slides were fixed with methanol at −20° C. for 10 min, then permeabilized with 0.05% Triton X-100 in a PBS buffer for 8 min at 4° C., and blocked with 1% bovine serum in PBS for 30 min at room temperature, followed by incubation with primary antibodies at room temperature for 3 hr and detected by FITC-labeled anti-IgG (1:200), anti-goat IgG conjugated with Cy3 (1:200) at room temperature for 1 hr. The cells were costained with 40,6-diamidino-2-phenylindole (DAPI) (1:10,000 dilution) to visualize nuclei. The images were taken under a LEICA TCS SP8 confocal laser scanning microscope system or an LSM-510 confocal laser scanning microscope system.

[4] = biological target: T2, m-RXRα (p-RXRα) interaction with PLK1 (Homo sapiens, UniProt P19793); assay: Co-immunoprecipitation of Myc-RXRα with FLAG-PLK1 in HeLa cells; conditions: 10 μM for 3 hr (FIG. 55)
T2 sequence (P19793 1-462): T1 sequence (P19793 1-462)
Procedure: Briefly, cells were harvested in a lysis buffer (10 mM Tris, pH 7.4, 150 mM NaCl, 0.5% NP40, 5 mM ethylene diamine tetraacetic acid, containing protease inhibitors). Cell lysates were incubated with an antibody (1 μg) at 4° C. for 2 hr. Immunocomplexes were then precipitated with 30 μL of protein G-Sepharose beads. After an extensive washing with the lysis buffer, the beads were boiled in a sodium dodecyl sulfate (SDS) sample loading buffer and assessed by western blotting.
Cell lysates were boiled in an SDS sample loading buffer, resolved by 10% SDS-polyacrylamide gel electrophoresis (SDS-PAGE), and transferred to PVDF membranes. The membranes were blocked with 5% milk in a Tris buffered saline and TWEEN 20 (TBST)(10 mM Tris-HCl, pH 8.0, 150 mM NaCl, 0.05% TWEEN 20) for 1 hr at room temperature. After washing twice with TBST, the membranes were incubated with primary antibodies in TBST for 1 hr and then washed twice, probed with a horseradish peroxide-linked anti-immunoglobulin (1:5,000 dilution) for 1 hr at room temperature. After three washes with TBST, immunoreactive products were visualized using enhanced chemiluminescence reagents and autoradiography.

[5] = biological target: T3, p-RXRα and PLK1 at the centrosome (Homo sapiens, UniProt P19793); assay: In situ proximity ligation assay (PLA) in HepG2 cells; type: cell-based; conditions: RO-3306 10 μM for 30 min or compound A1 10 μM for 2 hr (FIG. 56)
T3 construct: endogenous in cells; host or cells: HepG2
T3 sequence (P19793 1-462): T1 sequence (P19793 1-462)
Procedure: An in situ proximity ligation assay (PLA) was performed in HeLa cells and HepG2 by using a DOULINK™ assay kit. Briefly, cells mounted on glass slides were fixed with methanol at −20° C. for 5 min, then permeabilized with 0.05% Triton X-100 in a PBS buffer for 8 min at 4° C., and blocked with a blocking solution for 60 min at 37° C., followed by incubation with primary antibodies for 60 min at 37° C. The slides were then washed three times with wash buffer A, and PLA labeled secondary antibodies (anti-mouse, minus; anti-rabbit, plus) were added and incubated for 60 min at 37° C. The slides were washed two times with wash buffer A and a ligation solution including a ligase was added for 30 min at 37° C. After ligation, the slides were washed two times with wash buffer A and followed by incubation with an amplification buffer including a polymerase for 100 min at 37° C. After amplification, the slides were washed two times with 1×wash buffer B and one time in 0.01×wash buffer B. Finally, the slides were mounted using a minimal volume of a mounting medium with DAPI and analyzed in a confocal microscope after 15 min.

[6] = test system: HeLa cells; assay: Asynchronous or thymidine-synchronized HeLa cells incubated with compound A1; type: cell-based, human
Procedure: Cells were synchronized at GUS boundary by a double thymidine block. Briefly, cells cultured in a medium containing 2 mM thymidine for 16 hr were released into a normal medium for 8 hr, subjected to a second thymidine block for 16 hr, and then released into a fresh medium again. Alternatively, cells were synchronized at prometaphase by a thymidine-nocodazole arrest (an 18-hr thymidine arrest and a 5-hr release, followed by a 5-hr 100 ng/mL nocodazole arrest).

[7] = test system: primary mouse liver tumor cells; assay: Western blot analysis of primary mouse liver tumor cells; type: cell-based; conditions: 10 μM for 24 hr (FIG. 65)
Procedure: Briefly, a liver from a mouse was removed and washed in 1×PBS. The tumor tissue was resected from the liver and transferred to 5 mL PBS/2% FBS. The tumor tissue was minced with fine sterile scissors into fragments, followed by addition of 5 mL pre-warmed 2 mg/mL collagenase type IV/dispase. After incubated for 30 min at 37° C., the tumor cells were filtered through a 70 μm cell strainer and spined at 1,000 rpm for 5 min at 4° C. The pellet containing the liver tumor cells was then resuspended in 5 mL of 1×RBC lysis buffer and incubated on ice for 5 min. The tumor cells were spined and washed by 1×PBS/2% FBS for 2-3 times. Finally, the tumor cells were resuspended with DMEM (10% FBS, 40 ng/mL EGF, 0.008 ng/mL IGF-II) and plated in culture dishes that were pre-coated with collagen.

Structure (SMILES): COc1ccc(CC(=O)N/N=C/c2c(O)ccc3ccccc23)cc1 [Compound A1, (E)-N′-((2-hydroxynaphthalen-1-yl)methylene)-2-(4-methoxyphenyl)acetohydrazide]
- chromosomal aberrations (chromosome misalignment) ([1]; 10 μM for 2 hr (FIG. 67)): chromosomal aberrations
- mitotic arrest ([1]; 10 μM for 6 hr (FIG. 66)): caused mitotic arrest
- RXRα heterodimerization with RARγ (CoIP) [2]: no effect
- centrosomal aberrations [3]: caused centrosomal aberrations
- level of PLK1-pT210 at the centrosome ([3]; HepG2 cells, 10 μM for 2 hr after release from TT block for 10 hr (FIG. 57)): reduced the level of PLK1-pT210
- centrosome maturation (γ-tubulin at the centrosomes) ([3]; HepG2 cells, 10 μM for 2 hr after release from TT block for 10 hr (FIG. 58)): suppressed centrosome maturation
- p-RXRα interaction with PLK1 (CoIP) [4]: inhibited
- in situ interaction between p-RXRα and PLK1 at the centrosome (PLA) [5]: inhibited the in situ interaction
- effectiveness in asynchronous versus synchronized cells ([6]; HeLa cells, 10 μM for 24 hr (FIG. 64)): more effective in asynchronous cells (AS) than in synchronized GUS cells
- cell cycle progression and fate of synchronized HeLa cells upon treatment ([6]; synchronized HeLa cells): progressed through S phase normally and arrested in mitotic phase, which was followed by apoptosis
- G2/M arrest, DNA damage response, and apoptosis ([7]; primary liver cancer cells): induced G2/M arrest, DNA damage response, and apoptosis
- induction of mitotic arrest and apoptosis ([7]; primary mouse liver tumor cells): observed
